From patent US10493064B2, “IBS microbiota and uses thereof” (priority 2014, dated 2019)
In brackets after ≈: the same amount, converted by molar mass. Read-outs that look alike come from different tables or passages of the source.

Tests used:
[1] = test system: Staphylococcus isolates cultured from stool; experiment: Susceptibility (MIC) testing of stool culture isolates: Staphylococcus; assay type: cell-based; details: end of Treatment 2 (OL) and end of Treatment 3 (DBR); returned to baseline in follow-up
[2] = test system: Staphylococcus isolates; experiment: Broth microdilution susceptibility (MIC) testing of Staphylococcus isolates cultured from skin swabs; assay type: cell-based; details: for resistance of S. aureus isolates: S. aureus isolates from skin swabs, OL or DB phases; for changes in MIC90 values: return to baseline by end of study; for MIC: read-out: maximum MIC concentration observed
[3] = test system: C. difficile; experiment: Susceptibility testing of stool culture isolates: C. difficile; assay type: cell-based, Clostridium difficile
[4] = test system: Bacteroides; experiment: Susceptibility (MIC) testing of stool culture isolates: Bacteroides; assay type: cell-based
[5] = test system: S. aureus; experiment: Skin swab culture for S. aureus in IBS-D subjects; assay type: in vivo, human; details: OL or DB phases
Protocol: For the skin swab study, skin swab collection was performed for a subset of subjects (approximately 10% of the study population) at each of the following visits: Visits 3 and 4 (baseline and after two weeks of open-label rifaximin 550 mg TID [Treatment 2], respectively), Visits 6 and 7 (prior to and immediately after two weeks of double-blind retreatment [Treatment 3] with rifaximin 550 mg TID or placebo), and Visit 11 (End of Study). For each subject in this study, skin swabs were collected from the peri-rectum, nares, palms of hands, and forearms, and swabs were shipped immediately to the microbiology laboratory at ambient temperature in media-containing tubes. Skin swab cultures were conducted to isolate all Staphylococcus species.
Upon receipt at the microbiology laboratory, each skin swab was plated onto tryptic soy agar containing 5% sheep's blood and Columbia-colistin nalidixic acid agar with 5% sheep's blood to select for Gram-positive colonies. […] The inoculated plates were incubated at 35° C. in a 5-7% CO2 incubator, with plates examined at 24 and 48 h for bacterial growth.

[6] = test system: stool microbiota; experiment: 16S rRNA gene sequencing of stool microbiota in IBS-D subjects (richness, diversity, evenness, family abundance); assay type: in vivo, human; details: for Shannon diversity: DB rifaximin group
Protocol: Stool aliquots from the selected subjects were shipped frozen for genomic sequencing. The samples were thawed at the time of testing. DNA was extracted from stool. Next-generation sequencing technology (Illumina HiSeq2500) was used to sequence the V4 region of the 16S ribosomal RNA. In order to do this, a 286 base pair (bp) region was amplified […] first using Illumina's adapter information, and then a second round of demultiplexing was performed. Approximately 4.6 billion total ([…] paired ends) sequences were generated from the selected stool samples. […] There were 172 separate families identified from subjects randomly selected. […] This list also included families of bacteria that contained known pathogens. The Shannon Diversity Index was used to determine the diversity (which takes into account not only the number of bacterial families present, but also the relative abundance of those families) of the stool microbiota at each visit.

[7] = Phase 3 repeat treatment study in IBS patients, infection rates; assay type: in vivo, human; details: following single or repeat treatment courses in IBS patients
Protocol: Subjects entered a Screening/Treatment 1 Phase which included a 10 (±3) day treatment, during which the subjects received single-blind placebo TID and completed a daily symptom diary. Following the Screening/Treatment 1 Phase, eligible subjects entered the Treatment 2 Phase and received open-label rifaximin 550 mg TID for 2 weeks with a 4 week treatment-free follow-up. At the end of the Treatment 2 Phase, subjects who achieved treatment success in both IBS-related abdominal pain and stool consistency during at least 2 weeks of the 4 week follow-up period were classified as responders and entered a treatment-free Maintenance Phase 1. Non-responders in the Treatment 2 Phase were withdrawn from the study to provide an enriched population of subjects who respond to treatment with rifaximin.
The treatment-free Maintenance Phase 1 varied in time (up to 18 weeks in total) and depended upon the time of symptom recurrence. […] Subjects with recurrence entered Treatment 3 Phase, also referred to as the Double-Blind (DB) Repeat Treatment Phase. In this phase, subjects were randomized 1:1 to receive either rifaximin 550 mg TID or placebo TID for 2 weeks with a 4-week treatment-free follow-up. All subjects from the Treatment 3 Phase then entered a 6-week maintenance phase (Maintenance Phase 2). […]

[8] = skin swab, OL Week 2, following rifaximin treatment
[9] = skin swab, OL follow-up Week 7 to Week 10
[10] = skin swab, OL follow-up Week 11 to Week 14

With CO[C@H]1/C=C/O[C@@]2(C)Oc3c(C)c(O)c4c(O)c(c(/C=N/N5CCN(C)CC5)c(O)c4c3C2=O)NC(=O)/C(C)=C\C=C\[C@H](C)[C@H](O)[C@@H](C)[C@@H](O)[C@@H](C)[C@H](OC(C)=O)[C@@H]1C [rifampin] the “change in MIC values” [1] was “Transient increases”, the “changes in MIC50 values” [2] was “no changes” and the resistant isolates ([2]; DB placebo treated subjects, Day 1, peri-rectum) was 1 isolates. For the same molecule, the resistant isolates ([2]; DB placebo treated subjects, Week 2, peri-rectum) was 2 isolates, the resistant isolates ([2]; DB placebo treated subjects, treatment period, all from peri-rectum) was 3 isolates and the “isolates with MIC value of ≥4 μg/mL” value ([2]; OL Last Assessment Visits between Week 7 and Week 32, […]) was 16 isolates. The “resistance of S. aureus isolates” value [2] was “no S. aureus isolates showed resistance”, the MIC90 ([2]; Staphylococcus, 24 h, […], DB placebo subjects, all Visits from Day 1 to DB Last Assessment) was no more than 0.015 µg/mL and the MIC90 ([2]; Staphylococcus, 24 h, […], OL phase, Treatment 2 visit (Day 1), prior to rifaximin) was no more than 0.015 µg/mL. The MIC50 ([2]; Staphylococcus, 24 h, […], OL phase, Treatment 2 visit (Day 1), prior to rifaximin, read-out: MIC50) was no more than 0.015 µg/mL, the MIC90 ([2]; Staphylococcus, 336 h, […], OL phase, EOT2 Visit (Week 2), after rifaximin 550 mg TID 2 weeks) was 16 µg/mL (≈ 19.4 µM) and the MIC50 ([2]; Staphylococcus, 336 h, […], OL phase, EOT2 Visit (Week 2), after rifaximin 550 mg TID 2 weeks, read-out: MIC50) was no more than 0.015 µg/mL. The MIC90 ([2]; Staphylococcus, […], OL Last Assessment Visits, Weeks 7 to 10) was 0.5 µg/mL (≈ 0.608 µM), the MIC90 ([2]; Staphylococcus, […], OL Last Assessment Visits, from Week 11 onward) was no more than 0.015 µg/mL and the MIC50 ([2]; […], DB placebo subjects, all Visits from Day 1 to DB Last Assessment) was no more than 0.015 µg/mL. For the same molecule, the MIC range ([2]; […], OL phase, Day 1 of Treatment 2) was 0.015 to 0.12 µg/mL, the “changes in MIC90 values” ([2]; […]) was “Transient changes” and the “resistant isolates cultured from the left lower arm swabs” value ([2]; skin swab, OL Week 2) was 3 isolates. The “resistant isolates cultured from the palms of the hands” value ([2]; skin swab, OL Week 2) was 4 isolates, the “resistant isolates on the peri-rectum” value ([2]; skin swab, OL Week 2) was 32 isolates and the “isolates with a MIC value ≥4 μg/mL (resistant)” value [2, 8] was 39 isolates. The “isolates with an MIC value of <4 μg/mL (susceptible)” value [2, 8] was 297 isolates, the “resistant isolates (count)” value [2, 9] was “Seven” and the “resistant isolates, % of isolates” value [2, 9] was 9.5%. For the same molecule, the “resistant isolates (count)” value [2, 10] was 7 isolates, the “resistant isolates, % of isolates” value [2, 10] was 2.8% and the resistant isolates ([2]; skin swab, OL follow-up Week 15 to Week 32) was “No rifampin resistant isolates”.

For CO[C@H]1/C=C/O[C@@]2(C)Oc3c(C)c(O)c4c(O)c(c5c(nc6cc(C)ccn65)c4c3C2=O)NC(=O)/C(C)=C\C=C\[C@H](C)[C@H](O)[C@@H](C)[C@@H](O)[C@@H](C)[C@H](OC(C)=O)[C@@H]1C [rifaximin], the susceptibility ([3]; all C. difficile cultured from stool) was “highly susceptible”, the “resistance of C. difficile isolates” value ([3]; isolates identified in stool samples) was “none of these isolates demonstrated rifaximin resistance” and the “increases in the MIC50 or MIC90” value [4] was “within the range of MICs reported both at baseline”. The “change in MIC values” [1] was “Transient increases”, the “change in the number of S. aureus isolates” value [5] was “no increase” and the “resistance of S. aureus isolates” value [2] was “no S. aureus isolates showed resistance”. It also gave an MIC90 ([2]; Staphylococcus, 24 h, skin swab isolates, DB phase Day 1 (Treatment 3), subjects randomized to placebo) of 0.03 µg/mL (≈ 0.0382 µM), an MIC90 ([2]; Staphylococcus, 24 h, skin swab isolates, DB phase Day 1, subjects randomized to rifaximin) of 0.03 µg/mL (≈ 0.0382 µM) and an MIC90 ([2]; Staphylococcus, 24 h, skin swab staphylococcal isolates, OL phase, Treatment 2 visit (Day 1), prior to rifaximin) of 0.03 µg/mL (≈ 0.0382 µM). For the same molecule, the MIC50 ([2]; Staphylococcus, 24 h, skin swab staphylococcal isolates, OL phase, Treatment 2 visit (Day 1), prior to rifaximin, read-out: MIC50) was 0.015 µg/mL (≈ 0.0191 µM), the MIC90 ([2]; Staphylococcus, 336 h, skin swab isolates, OL phase, EOT2 Visit (Week 2), after rifaximin 550 mg TID 2 weeks) was 32 µg/mL (≈ 40.7 µM) and the MIC50 ([2]; Staphylococcus, 336 h, skin swab isolates, OL phase, EOT2 Visit (Week 2), after rifaximin 550 mg TID 2 weeks, read-out: MIC50) was 0.015 µg/mL (≈ 0.0191 µM). For the same molecule, the MIC90 ([2]; Staphylococcus, skin swab isolates, DB rifaximin subjects, EOT3 Visit (Week 2)) was 32 µg/mL (≈ 40.7 µM), the MIC90 ([2]; Staphylococcus, skin swab isolates, DB rifaximin subjects, Week 15 to Week 22) was 0.5 µg/mL (≈ 0.636 µM) and the MIC90 ([2]; Staphylococcus, skin swab isolates, DB rifaximin subjects, between Week 11 and Week 14) was 64 µg/mL (≈ 81.4 µM). It also gave an MIC90 ([2]; Staphylococcus, skin swab isolates, DB rifaximin subjects, between Week 23 and Week 38) of 0.06 µg/mL (≈ 0.0763 µM), an MIC90 ([2]; Staphylococcus, skin swab isolates, OL Last Assessment Visits, Weeks 7 to 10) of 2 µg/mL (≈ 2.54 µM) and an MIC ([2]; Staphylococcus, skin swab isolates, OL Last Assessment Visits, after decrease with time off rifaximin) of 0.06 µg/mL (≈ 0.0763 µM). The MIC ([2]; Staphylococcus, skin swab isolates, OL Last Assessment Visits, before decrease with time off rifaximin) was 64 µg/mL (≈ 81.4 µM), the MIC90 ([2]; Staphylococcus, skin swab isolates, OL Last Assessment Visits, from Week 11 onward) was 0.03 µg/mL (≈ 0.0382 µM) and the MIC50 ([2]; Staphylococcus, skin swab isolates, DB rifaximin subjects, DB Last Assessment Visits, read-out: MIC50) was 0.015 to 0.06 µg/mL (≈ 0.0191 to 0.0763 µM). For the same molecule, the MIC50 ([2]; skin swab isolates, DB phase Day 1 (Treatment 3), subjects randomized to placebo) was 0.015 µg/mL (≈ 0.0191 µM), the MIC50 ([2]; skin swab isolates, DB phase Day 1, subjects randomized to rifaximin) was 0.015 µg/mL (≈ 0.0191 µM) and the “changes in MIC50 values” ([2]; skin swab staphylococcal isolates, overall with rifaximin treatment) was “no changes”. The “changes in MIC90 values” ([2]; skin swab staphylococcal isolates, overall) was “Transient changes”, the “evenness in the microbiota” value ([6]; DB phase) was “unchanged” and the “richness of the microbiota” value ([6]; DB phase, rifaximin treated subjects, Week 2, reversed in follow-up) was “decreased”. For the same molecule, the Shannon diversity ([6]; after the 2 week treatment period) was 1.698, the Shannon diversity ([6]; baseline of DB phase) was 1.786 and the “decrease in richness of the microbiota” value ([6]; OL phase, baseline to Week 2) was 1.235 families. For the same molecule, the “change in Shannon diversity of the stool microbiota” value ([6]; OL phase, rifaximin 550 mg TID 2 weeks) was “no substantial change”, the “evenness of the microbiota” value ([6]; OL phase, rifaximin treatment) was “not affected” and the infection rates [7] was “no increased infection rates”.

In the case of O=C(O)c1cn(C2CC2)c2cc(N3CCNCC3)c(F)cc2c1=O [ciprofloxacin], the “resistance of Staphylococcus isolates” value ([2]; some skin swab isolates, did not substantially change with rifaximin treatment or time) is reported as “low levels of resistance”.
